Marks after values point to notes of the source that are not given here.
Key:
stomach = test: Acute ulcerogenic side effect; format: in vivo; details: mice; for Abou Zeit Har Score (ulcer index): intraperitoneal, indomethacin 5 mg/kg, celecoxib 20 mg/kg, means ± SD; for Gastric mucosa finding (ulcers) on examination: stomach examined after sacrifice
LOX mRNA = test: Real-time PCR of inflamed paw tissue, LOX gene expression; format: in vivo, Mouse; details: paw tissue after formalin test, 2^-ΔΔCt method, means ± SD
COX-2 mRNA = test: Real-time PCR of inflamed paw tissue, COX-2 gene expression; format: in vivo, Mouse; details: paw tissue after formalin test; 2^-ΔΔCt method; means ± SD
COX-1 mRNA = test: Real-time PCR of inflamed paw tissue, COX-1 gene expression; format: in vivo, Mouse; details: paw tissue after formalin test; 2^-ΔΔCt method; means ± SD

| Structure (SMILES) | Abou Zeit Har Score (ulcer index) (stomach) | Gastric mucosa finding (ulcers) on examination (stomach) | LOX mRNA relative expression (real-time PCR) (LOX mRNA) | LOX mRNA relative expression (real-time PCR) (LOX mRNA; listed as indomethacin) | COX-2 mRNA relative expression (real-time PCR) (COX-2 mRNA) | COX-1 mRNA relative expression (real-time PCR) (COX-1 mRNA) |
| --- | --- | --- | --- | --- | --- | --- |
| Cc1ccc(-c2cc(C(F)(F)F)nn2-c2ccc(S(N)(=O)=O)cc2)cc1 [Celecoxib] | 0.6 ± 0.58 | preserved the integrity of the mucosa |  |  |  |  |
| COc1ccc2c(c1)c(CC(=O)O)c(C)n2C(=O)c1ccc(Cl)cc1 [Indomethacin] | 11.2 ± 1.64 | large ulcers | 1.32 ± 0.01 | not affected | 0.17 ± 0.01^a | 0.82 ± 0.02 |

Source: PMC9377232 (Journal of Enzyme Inhibition and Medicinal Chemistry, 2022)
